# Source: publication PMC5468484 (The Pediatric infectious disease journal, 2017)
# “Also recorded” adds a separate entry of the source. Like-named read-outs stand apart in the source and are kept apart here.
# Tests used:
# [1] = Long term stability of dalbavancin plasma samples; type: in vitro ADME, human; settings: plasma (K2-EDTA), 368 days stored at −20°C, LC-MS/MS
# [2] = test system: acute bacterial skin and skin structure infections; settings: adults, cited from earlier work
# [3] = for Terminal half-life: study DUR001-106, single IV dose, post-hoc slope of gamma phase, three compartment model, median (range)
# [4] = test system: cytochrome P450 isoenzymes; settings: cited from earlier work
# [5] = human plasma; cited from earlier work
# [6] = Safety evaluation; type: in vivo, human
# [7] = clinical; settings: human, in vivo, iv
# [8] = cited from earlier work
# [9] = nonparametric bootstrap (N=1000) of final model
# [10] = three-compartment model, 43 subjects, typical value at weight 40.9 kg
# [11] = among the 36 treatment-emergent AEs
# [12] = children 3 months to 11 years (N=34)
# [13] = children 3 months to 11 years, single IV dose
smiles,measurement,setting,value
CN[C@H]1C(=O)N[C@@H]2Cc3ccc(cc3)Oc3cc4cc(c3O[C@@H]3O[C@H](C(=O)O)[C@@H](O)[C@H](O)[C@H]3NC(=O)CCCCCCCCC(C)C)Oc3ccc(cc3Cl)[C@@H](O)[C@@H]3NC(=O)[C@H](NC(=O)[C@@H]4NC(=O)[C@@H](NC2=O)c2cc(cc(O)c2Cl)Oc2cc1ccc2O)c1ccc(O)c(c1)-c1c(O[C@H]2O[C@H](CO)[C@@H](O)[C@H](O)[C@@H]2O)cc(O)cc1[C@@H](C(=O)NCCCN(C)C)NC3=O [dalbavancin],Long term stability of plasma samples,[1],stable
same,Efficacy of single 1500 mg infusion versus the 2-dose regimen,[2]; ABSSSI,as effective as the 2-dose regimen; also recorded: noninferior to the 2-dose regimen
same,Efficacy versus intravenous vancomycin with subsequent oral linezolid in ABSSSI,"[2]; two studies, 2-dose dalbavancin regimen",not inferior; also recorded: noninferior
same,Terminal half-life,[3]; 2 years to <6 years (N=11),315 (271–332) h
same,Terminal half-life,[3]; 3 months to <2 years (N=11),279 (244–298) h
same,Terminal half-life,[3]; 6 to 11 years (N=11),390 (317–490) h
same,"Power coefficient of albumin on Vc, final model estimate",[3]; (Albumin/3.7)^coefficient,−0.73
same,"Power coefficient of albumin on Vc, bootstrap median",[3]; [9],−0.72
same,"Power coefficient of weight on volume parameters, bootstrap median",[3]; [9],0.95
same,"Power coefficient of weight on volume parameters, final model estimate","[3]; same coefficient for Vc, Vp1, Vp2, ((Weight in kg)/40.9)^coefficient",0.95
same,"Vp1 (volume of distribution for peripheral compartment 1), final model estimate",[3]; [10],2.90 L
same,"Vp2 (volume of distribution for peripheral compartment 2), final model estimate",[3]; [10],2.93 L
same,"Substrate, inhibitor or inducer of cytochrome P450 isoenzymes",[4],"not a substrate, inhibitor, or inducer"
same,Binding to plasma proteins,[5],93%
same,AEs deemed possibly related to dalbavancin treatment,[6]; N=1 each,"rash, diaper dermatitis, urticaria, and asymptomatic hepatic enzyme elevation"
same,Treatment-emergent AEs considered mild,[6]; [11],26
same,Treatment-emergent AEs considered moderate,[6]; [11],6
same,Treatment-emergent AEs considered severe,[6]; [11],4
same,Number of treatment-emergent AEs,[6]; [12],36
same,Serious or severe treatment-emergent AEs considered related to dalbavancin treatment,[6]; [12],None and no serious or severe AEs related to treatment
same,Subjects who experienced a serious AE,[6]; [12],Five
same,Deaths,[6]; [13],no deaths were reported
same,Tolerability,[6]; [13],well tolerated
same,AE probably related to study treatment,[6]; one subject,infusion site discomfort
same,Adverse events assessed as possibly or probably related to treatment,[6]; out of 36 treatment-emergent adverse events,Five
same,clearance,[7],1.05 mL/h/kg
same,clearance,[7]; 10 mg/kg,1.23 mL/h/kg
same,clearance,[7]; 15 mg/kg,0.795 mL/h/kg
same,Volume of distribution at steady-state,[8]; adults,15.9 L
same,Eliminated as the parent compound in feces and urine,[8],~ 70%
